Columns and labels:
Test in all cases: drug sensitivity score (DSS3, normalised partial AUC of % inhibition dose-response) (DSS (score)); higher = more sensitive (stronger inhibition of viability); extreme values may be limits of the assay
FMOC03 = patient-derived mucinous ovarian cancer cells; settings: 72 h; library: FO5A; assay format: 2D, 384-well, CellTiter-Glo
Procedure, shortened: (§1)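 The drug sensitivity score is calculated as a partial area under the percent-inhibition dose-response curve, divided by the log of the upper asymptote; higher scores mean more sensitive. For this score, early-passage (under 10) patient-derived ovarian cancer cells were exposed on 384-well flat clear-bottom plates to compounds at five concentrations across a 10,000-fold range for 72 h at 37 °C, 5% CO2. Viability was read with CellTiter-Glo and processed in Breeze.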

FMOC25_2 = patient-derived low-grade serous ovarian cancer cells; settings: 72 h; library: FO5A; assay format: 2D, 384-well, CellTiter-Glo
Procedure, shortened: as §1

FMOC25_1 = patient-derived low-grade serous ovarian cancer cells; settings: 72 h; library: FO4B; assay format: 2D, 384-well, CellTiter-Glo
Procedure, shortened: as §1

FMOC02_3 = patient-derived low-grade serous ovarian cancer cells; settings: 72 h; library: FO5A; assay format: 2D, 384-well, CellTiter-Glo
Procedure, shortened: as §1

FMOC02_2 = patient-derived low-grade serous ovarian cancer cells; settings: 72 h; library: FO5A; assay format: 2D, 384-well, CellTiter-Glo
Procedure, shortened: as §1

FMOC14 = patient-derived high-grade serous ovarian cancer cells; settings: 72 h; library: FO5A; assay format: 2D, 384-well, CellTiter-Glo
Procedure, shortened: as §1

FMOC09 = patient-derived high-grade serous ovarian cancer cells; settings: 72 h; library: FO5A; assay format: 2D, 384-well, CellTiter-Glo
Procedure, shortened: as §1

FMOC06 = patient-derived mucinous ovarian cancer cells; settings: 72 h; library: FO5A; assay format: 2D, 384-well, CellTiter-Glo
Procedure, shortened: as §1

FMOC24 = patient-derived high-grade serous ovarian cancer cells; settings: 72 h; library: FO5A; assay format: 2D, 384-well, CellTiter-Glo
Procedure, shortened: as §1

FMOC22 = patient-derived mucinous ovarian cancer cells; settings: 72 h; library: FO5A; assay format: 2D, 384-well, CellTiter-Glo
Procedure, shortened: as §1

Row | Compound | drug sensitivity score (FMOC03) | drug sensitivity score (FMOC25_2) | drug sensitivity score (FMOC25_1) | drug sensitivity score (FMOC02_3) | drug sensitivity score (FMOC02_2) | drug sensitivity score (FMOC14) | drug sensitivity score (FMOC09) | drug sensitivity score (FMOC06) | drug sensitivity score (FMOC24) | drug sensitivity score (FMOC22)
1 | CC(C)(C)C[C@@H]1N[C@@H](C(=O)N[C@H]2CC[C@H](O)CC2)[C@H](c2cccc(Cl)c2F)[C@]12C(=O)Nc1cc(Cl)ccc12 | 3.1 | 8.4 | 9.9 | 17.9 | 10.3 | 1.6 | 1.6 | 3.3 | 3.4 | 3.5
2 | CC(C)Oc1ccc(C(=O)N[C@H](CNC(=O)CN(C)C)Cc2ccc(-c3cn4cccc([C@H](C)O)c4n3)cc2)cc1Cl | 5.5 | 8.8 | 3.3 | 11.9 | 3.8 | 3.5 | 7.3 | 2.7 | 4.8 | 5.7
3 | CCc1cncnc1N1CCN(Cc2nc3ccc(C(F)(F)F)cc3[nH]2)CC1 | 0.8 | 6.2 | 1.3 | 5.3 | 3.9 | 1.3 | 0.1 | 0.5 | 5.2 | 1.3
4 | CCn1c(-c2nonc2N)nc2c(C#CC(C)(C)O)ncc(OC[C@H]3CCCNC3)c21 | 2 | 8.1 | 4.5 | 12.5 | 10.3 | 2.7 | 2.4 | 4.5 | 1.6 | 1.2
5 | CCn1cc(-c2ccnc3[nH]c(-c4cccc(CN(C)C)c4)cc23)c(-c2ccc(NC(=O)N(C)C)cc2)n1 | 0 | 2.2 | 0 | 2.6 | 0 | 0 | 0 | 0 | 0.55 | 0.1
6 | CNC(=O)c1ccccc1Nc1nc(Nc2ccc3c(c2OC)CCC[C@H](N2CCN(CCO)CC2)C3)ncc1Cl | 7.2 | 10.3 | 9 | 11.7 | 11.1 | 6 | 8.3 | 10.3 | 5.95 | 7.1
7 | CNc1ncc2cc(-c3cc(NC(=O)NCCC(C)(C)C)c(F)cc3C)c(C)nc2n1 | 12 | 14.8 | 11.1 | 16.9 | 12.5 | 1.3 | 9.5 | 11.8 | 1.7 | 9.3
8 | C[C@@H](Oc1cc(-n2cnc3ccc(CN4CCN(C)CC4)cc32)sc1C(N)=O)c1ccccc1C(F)(F)F | 7.3 | 11.9 | 7.4 | 9.1 | 8.2 | 3.9 | 12.6 | 5.3 | 6.1 | 11.5
9 | C[C@@]1(C(=O)Nc2ccc(F)nc2)CCCN1c1nc(Nc2cc(C3CC3)n[nH]2)c2cccn2n1 | 7 | 14.6 | 9.2 | 18.9 | 14.3 | 2.2 | 14.7 | 14.7 | 2.75 | 9.5
10 | Cc1nc(Nc2n[nH]c3c2CN(C(=O)N[C@H](CN(C)C)c2ccccc2)C3(C)C)c2sccc2n1 | 10.6 | 26.6 | 16.7 | 20.9 | 12.8 | 6.5 | 10.2 | 13.7 | 8.1 | 10.5
11 | Cc1nn(C)c(COc2ccc(N3CCN(S(=O)(=O)N(C)C)CC3)cc2)c1-c1cccc2c(CCCOc3cccc4ccccc34)c(C(=O)O)n(CCN3CCOCC3)c12 | 5.9 | 4.7 | 5.6 | 7.5 | 6 | 7.6 | 5.9 | 7 | 6.7 | 8.2
12 | Cn1cc(C2=Nc3cc(NC(=O)C(N)C4CCCCC4)cc4c3C2=CNNC4=O)cn1 (stereo not given) | 4.3 | 10.9 | 11.7 | 9.9 | 7.3 | 6.8 | 7.6 | 3 | 10.1 | 8.3
13 | O=C(NOC[C@H](O)CO)c1ccc(F)c(F)c1Nc1ccc(I)cc1F | 11.5 | 5.2 | 7 | 7 | 10.4 | 0.2 | 8 | 11.3 | 0.2 | 7.5
14 | O=C(Nc1ccc2[nH]nc(-c3ccncc3)c2c1)[C@@H]1CCN(CC(=O)N2CCN(c3ccc(-c4ncccn4)cc3)CC2)C1 | 18.4 | 18 | 16.6 | 16.8 | 14.3 | 1.1 | 9.6 | 14.9 | 3.15 | 11.8
15 | COc1ccc(C[C@H](NC(=O)[C@H](C)NC(=O)CN2CCOCC2)C(=O)N[C@@H](Cc2ccccc2)C(=O)C2(C)CO2)cc1 (stereo in doubt) [ONX-0914] | 16.5 | 18.8 | 16.4 | 19.3 | 12.5 | 14.1 | 12.8 | 16.9 | 20.9 | 14.9
16 | CC/C(=C(\c1ccc(O)cc1)c1ccc(OCCN(C)C)cc1)c1ccccc1 [4-hydroxytamoxifen] | 6.1 | 3.2 | 2 | 6.4 | 6.8 | 6.1 | 5.1 | 7.3 | 7.3 | 5.7
17 | Nc1ncnc2c1nc(N)n2[C@@H]1O[C@H](CO)[C@@H](O)[C@H]1O [8-amino-adenosine] | 18.3 | 18.6 | 20.5 | 21.7 | 27.5 | 16 | 20.2 | 20.3 | 18.8 | 18.6
18 | Nc1ncnc2c1nc(Cl)n2[C@@H]1O[C@H](CO)[C@@H](O)[C@H]1O [8-chloro-adenosine] | 2.4 | 15.2 | 11.4 | 18.2 | 19.7 | 3.3 | 5.5 | 4.1 | 6 | 3.2

Row | Compound | drug sensitivity score (FMOC03) | drug sensitivity score (FMOC25_2) | drug sensitivity score (FMOC25_1) | drug sensitivity score (FMOC02_3) | drug sensitivity score (FMOC02_2) | drug sensitivity score (FMOC14) | drug sensitivity score (FMOC09) | drug sensitivity score (FMOC06) | drug sensitivity score (FMOC24) | drug sensitivity score (FMOC22)
19 | COc1ccc(S(=O)(=O)Nc2cccnc2Nc2ccc(O)cc2)cc1 [ABT-751] | 7.4 | 6.8 | 5 | 9.5 | 9.4 | 1.3 | 7.3 | 7 | 1.8 | 6.8
20 | CC(C)[C@@H](CS(=O)(=O)C(C)C)N1C(=O)[C@@](C)(CC(=O)O)C[C@H](c2cccc(Cl)c2)[C@H]1c1ccc(Cl)cc1 [AMG-232] | 0 | 13.1 | 5.6 | 26 | 14.9 | 0 | 0 | 0 | 0 | 0.8
21 | CC(C)[C@H](C(=O)Nc1ccc(C(=O)NO)cc1)c1ccccc1 [AR-42] | 12.4 | 10.7 | 10.1 | 8.8 | 11 | 11.5 | 5.2 | 10.6 | 9.3 | 8.7
22 | COc1cc(N2CCC(N3CCN(C)CC3)CC2)ccc1Nc1ncnc(Nc2ccccc2S(=O)(=O)C(C)C)n1 [ASP3026] | 4 | 8.6 | 5.2 | 8.1 | 9.8 | 0.8 | 7.2 | 4.9 | 5.1 | 4
23 | O=C(NC1CCNCC1)c1n[nH]cc1NC(=O)c1c(Cl)cccc1Cl [AT7519] | 12.1 | 21.3 | 17.6 | 22.1 | 17.8 | 12.5 | 12.3 | 16.3 | 15.2 | 10
24 | O=C(Nc1c[nH]nc1-c1nc2ccc(CN3CCOCC3)cc2[nH]1)NC1CC1 [AT9283] | 3.4 | 5.1 | 0.1 | 9.3 | 4.1 | 1.8 | 5.7 | 2.8 | 4.7 | 0.5
25 | CN[C@@H](C)C(=O)N[C@H]1CN(C(=O)CC(C)C)CC[C@H]2CC[C@@H](C(=O)NC(c3ccccc3)c3ccccc3)N2C1=O [AT-406] | 1.5 | 5 | 1.5 | 0.3 | 0 | 5.4 | 0 | 8.8 | 24.9 | 0
26 | CC[C@H](CC#N)OC(=O)N[C@@H](C)c1cccc(NC(=O)Nc2ccc(-c3cnco3)c(OC)c2)c1 [AVN944] | 13.4 | 10.3 | 9.7 | 12.6 | 9.8 | 11 | 11.2 | 13.4 | 6.45 | 14.2
27 | NC(=O)Nc1cc(-c2cccc(F)c2)sc1C(=O)N[C@H]1CCCNC1 [AZD7762] | 1.5 | 4.5 | 3.3 | 6.1 | 3.5 | 6.2 | 6.3 | 3.6 | 9.15 | 3.3
28 | COc1ccc(-c2ccc3c(N4CCOC[C@@H]4C)nc(N4CCOC[C@@H]4C)nc3n2)cc1CO [AZD8055] | 20.7 | 28.8 | 30.9 | 29.9 | 28.6 | 16.2 | 14.5 | 20.3 | 13.3 | 17.4
29 | Cc1ncc(-c2ccnc(Nc3ccc(S(C)(=O)=O)cc3)n2)n1C(C)C [AZD-5438] | 7.5 | 12.8 | 8.1 | 15.2 | 12.4 | 9.7 | 3.4 | 8.2 | 13.6 | 7
30 | CN(C)Cc1c(C(=O)NCCOc2ccc(C(=O)NO)cc2)oc2ccccc12 [Abexinostat] | 12.7 | 14.2 | 13.3 | 14 | 16.6 | 13.5 | 5.9 | 11.7 | 15.3 | 8.5
31 | CN(C)C/C=C/C(=O)Nc1cc2c(Nc3ccc(F)c(Cl)c3)ncnc2cc1O[C@H]1CCOC1 [Afatinib] | 17 | 16.9 | 10.4 | 18.2 | 17.5 | 7.7 | 14.4 | 4.3 | 2.75 | 0.3
32 | COc1cccc2c1C(=O)c1c(O)c3c(c(O)c1C2=O)C[C@@](O)(/C(CO)=N/NC(=O)CCCCCN1C(=O)C=CC1=O)C[C@@H]3O[C@H]1C[C@H](N)[C@H](O)[C@H](C)O1 [Aldoxorubicin] | 3.9 | 7.9 | 5.3 | 7.8 | 5 | 4.7 | 6.1 | 4.4 | 5.2 | 4.5
33 | COc1cc(Nc2ncc3c(n2)-c2ccc(Cl)cc2C(c2c(F)cccc2OC)=NC3)ccc1C(=O)O [Alisertib] | 4.7 | 2.3 | 0.9 | 5.8 | 4.8 | 0.7 | 2.3 | 1.3 | 1 | 2.2
34 | CN1CC[C@H](c2c(O)cc(O)c3c(=O)cc(-c4ccccc4Cl)oc23)[C@H](O)C1 [Alvocidib] | 17.9 | 19.6 | 19.1 | 22.4 | 21.3 | 15.3 | 10.7 | 17 | 18.7 | 12.8
35 | COc1cc(NS(C)(=O)=O)ccc1Nc1c2ccccc2nc2ccccc12 [Amsacrine] | 6 | 7.1 | 8.2 | 7 | 5.2 | 2.2 | 4.7 | 4.5 | 8.05 | 8.3
